Where two headings read alike, the source gives them in different places.
Experiments:
[1] = Metabolite profiling of ADP in excreta, plasma and bile (LC-v.ARC/MS-IT-TOF); type: in vivo, broilers; conditions: for percentage of the individual metabolite compared with the total concentration of ADP-related: within 6 h after dosing; for Average percentage of ADP and its metabolites in total dose: Broilers, Excreta, single oral 5 mg/kg b.w. ^3H-ADP
Method: (§1) Animals (4 swine, 6 broilers, 6 carp, and 3 male and 3 female rats) were housed individually in clean, suspended wire-mesh metabolism cages, designed to separate the urine from the feces (carp were raised in individual aquaria). Each animal was weighed and assigned with a permanent identification number. A single dose of ^3 H-ADP (5 mg/kg b. w., 0.1 Ci/g) was administered via the oral gavage. Excreta were collected on ice at the pre-administration, in the period of 6, 12, and 24 h on day 1 d, and afterwards, intermittently in the period of 24 h up to 14 d. The piscine excreta were collected by changing and collecting raised water. The total volume or weight of each sample was measured and homogenized. The total radioactivity levels were determined through LSC for the recovery calculations. After the preparation, the samples were analyzed through LC/MS-IT-TOF with v. ARC radiometric detection (XenoBioticLaboratories, Inc.) for metabolite profiling. The pretreatment samples were used as controls to determine the background radioactivity or the endogenous nondrug-related ions observed within respective matrices or their extracts.
(§2) A total of 36 animals from each species (swine n = 24) were randomly assigned to six equal treatment groups and administered a single daily dose of ^3 H-ADP at 5 mg/kg b. w. (0.1 Ci/g) through oral gavage for 7 consecutive days. All the animals were housed on the basis of their group in the cages or aquaria throughout the whole study period. A group of animals was slaughtered through exsanguination under diethyl ether inhalation of anesthesia in the period of 6 h, 1, 3, 7, 14, and 21 d after the administration. The blood samples were immediately collected into the heparinized tubes and was centrifuged at 1920 × g at 4 °C for 10 min to obtain the plasma. The tissues from the heart, liver, spleen, lung, kidney, craw (broilers), stomach, intestine, fat, skin, muscle, thymus, pancreas, bile, bladder, hair (scale for carp), genital gland, adrenal glands, swim bladder (carp), brain, lymph, and bursa (broilers) were carefully excised and collected. The tissues were thoroughly rinsed with the deionized water to remove the residuary blood, blotted to dryness, and finally to perform the homogenization. In order to avoid cross-contamination the dissecting instruments were washed during the tissue procurements. The blank tissues were collected in order to provide control matrices. The total radioactivity levels in each sample were determined through LSC. The samples extracted from the plasma, bile, and tissues of the liver, kidney, muscle, and fat/skin were analyzed through LC/MS-IT-TOF and v. ARC radiometric detection for metabolite profiling. The blank samples were used as control to determine the background radioactivity or the endogenous nondrug-related ions observed within respective matrices or their extracts.
(§3) For metabolite profiling, the urine and feces samples from each animals were pooled proportionally to the excreted amount in each sampling period from 0 to 6 h, 6 h to 1 d, 1 to 3 d, 3 to 7 d, and 7 to 14 d post-dose, respectively. All samples were fully homogenized before the process. The pre-dose and blank samples served as the controls for determining the background radioactivity or the endogenous, nondrug-related ions observed within respective matrices or their extracts.
(§4) The urine samples (plasma, bile and raised water for carp) was subjected to solid-phase extraction with an Oasis MCX cartridge (3 mL, […]; Waters, Milford, MA, USA) for metabolite purification and enrichment. The pH value was adjusted to 2.8–3.2 by adding 1 M hydrochloric acid (HCl), and 2 mL of the sample was transferred into MCX cartridge, which was preconditioned with 3 mL of methanol and 3 mL of 0.1 mol/L HCl solution. The cartridge was washed with 3 mL of 0.1 mol/L HCl solution and was eluted with 5 mL of NH4OH/methanol (4:96, v:v). The effluent was concentrated to dryness under a stream of nitrogen at 40 °C. […]

[2] = as above; type: in vivo, carp; conditions: for percentage of the individual metabolite compared with the total concentration of ADP-related: within 6 h after dosing; for Average percentage of ADP and its metabolites in total dose: Carp, Excreta, single oral 5 mg/kg b.w. ^3H-ADP
Method: as §1, §2, §3, §4

[3] = Concentration and elimination of ADP and its metabolites in liver, kidney, muscle, fat/skin after oral ^3H-ADP for 7 d; type: in vivo, swine; conditions: for half-life: pig, po; for concentration at 0.25 d / concentration at 1 d / concentration at 3 d / concentration at 7 d / concentration at 14 d: swine, oral, 5 mg/kg b.w.
Method: as §2
The feces and tissues (2 g) were diluted with a mixture of methanol and chloroform (1:3, v:v; 2 mL/g homogenate). This procedure was carried out in a fume hood for the safety aspects. The pH value was adjusted to 9.0 with NH4OH. The mixture was vortexed and sonicated for 5 min and 10 min, respectively, and finally the samples were centrifuged at 7690 × g for 10 min. The supernatant was aspirated and then transferred into a new centrifuge tube. The obtained pellet was again subjected to the same process of vortex, ultrasonication, extraction, and centrifugation. The combined supernatant was concentrated under a stream of nitrogen in a water bath at 40 °C. The residue was reconstituted with 0.3 mL of methanol–water (1:9, v:v) before the injection into the LC-v. ARC/MS-IT-TOF system for analysis.
ADP and its metabolites in the prepared samples were determined with a v. ARC radiometric detector and a hybrid IT/TOF mass spectrometer connected to the HPLC system (Shimadzu Corp., Kyoto, Japan). The LC system was equipped with a solvent delivery pump (LC-20AD), an auto-sampler (SIL-20AC), a degasser (DGU-20 A 3), a photodiode array detector (SPD-M20A), a communication base module (CBM-20 A), and a column oven (CTO-20AC). The chromatographic separation was achieved by using an Agilent extend-C18 column (2.1 mm × 150 mm, 5 μm) with a gradient mobile phase of A (0.01% ammonia and 5 mM ammonium acetate in water) and B (methanol) at a flow rate of 0.2 mL/min. The column temperature was maintained at 35 °C. Various HPLC methods were performed because of the large number of different metabolites to be analyzed. For the porcine sample, method 1 started at 5% B and increased to 20% B over 35 min, then to 55% B by 60 min, followed by re-equilibration for another 10 min. For the remaining samples, method 2 started at 10% B and increased to 60% B over 30 min, subsequently was maintained at 60% B for an additional 10 min, and then changed to 90% B over 2 min and maintained for 2 min. Afterwards, a re-equilibration step (decreased to 10% B over 1 min and maintained at 10% B for additional 9 min) was followed. For each matrix, more than 98% of the radioactivity injected into the column was eluted during the running time of the gradient program. […]

[4] = swine kidney, after 5 mg/kg b. w. for 7 days, read-out: t1/2 of the individual compound (converted)
[5] = swine liver, after 5 mg/kg b. w. for 7 days, read-out: t1/2 of the individual compound (converted)
[6] = swine muscle, after 5 mg/kg b. w. for 7 days, read-out: t1/2 of the individual compound (converted)
[7] = tissues (liver, kidney, muscle, fat/skin), 5 mg/kg, swine tissues, read-out: t1/2 of the individual compound, range over tissues

In the case of `CNc1c(OC)cc(Cc2cnc(N)nc2N)cc1OC` [A1, N-monodesmethyl-ADP], the “percentage of the individual metabolite compared with the total concentration of ADP-related” value (from here on “percentage of the individual metabolite”) ([1]; Broilers Extra (excreta)) is reported as 12.8%, the “percentage of the individual metabolite” value ([1]; Broilers Plasma) is reported as 23.4% and the “Average percentage of ADP and its metabolites in total dose” value (from here on “Average percentage”) [1] is reported as 13.7%. The “percentage of the individual metabolite” value ([2]; Carp Bile) was 25.5%, the “percentage of the individual metabolite” value ([2]; Carp Extra (excreta)) was 9.9% and the “percentage of the individual metabolite” value ([2]; Carp Plasma) was 23.9%. For the same molecule, the “Average percentage” value [2] was 8.9%, the half-life [3, 4] was 21.8 h and the half-life [3, 5] was 25 h. The half-life [3, 6] was 17.5 h, the half-life [3, 7] was 17.5 to 25 h and the concentration at 0.25 d ([3]; fat) was 300 ± 70 ng/g. For the same molecule, the concentration at 1 d ([3]; fat) was 60 ± 10 ng/g, the concentration at 0.25 d ([3]; kidney) was 15400 ± 5300 ng/g and the concentration at 1 d ([3]; kidney) was 3430 ± 1250 ng/g. It also gave a concentration at 3 d ([3]; kidney) of 160 ± 40 ng/g, a concentration at 7 d ([3]; kidney) of 20 ng/g and a concentration at 0.25 d ([3]; liver) of 4620 ± 850 ng/g. For the same molecule, the concentration at 1 d ([3]; liver) was 1650 ± 330 ng/g, the concentration at 3 d ([3]; liver) was 640 ± 110 ng/g and the concentration at 0.25 d ([3]; muscle) was 850 ± 250 ng/g. For the same molecule, the concentration at 1 d ([3]; muscle) was 150 ± 40 ng/g and the concentration at 3 d ([3]; muscle) was 50 ± 10 ng/g.

For `COc1cc(Cc2cnc(N)nc2N)cc(OC)c1N` [A2, N-didesmethyl-ADP], the “percentage of the individual metabolite” value ([1]; Broilers Extra (excreta)) was 6.5%, the “percentage of the individual metabolite” value ([1]; Broilers Plasma) was 12.6% and the “Average percentage” value [1] was 4.8%. The “percentage of the individual metabolite” value ([2]; Carp Bile) was 9.8%, the “percentage of the individual metabolite” value ([2]; Carp Extra (excreta)) was 2.5% and the “percentage of the individual metabolite” value ([2]; Carp Plasma) was 14.4%. The “Average percentage” value [2] was 2.9%, the half-life ([3]; 5 mg/kg, kidney and liver of swine and rat, read-out: t1/2 of the individual compound, range over tissues) was 10.1 to 38.6 h and the half-life [3, 4] was 10.1 h. The half-life [3, 5] was 23.8 h, the concentration at 0.25 d ([3]; fat) was 70 ± 10 ng/g and the concentration at 0.25 d ([3]; kidney) was 6360 ± 1040 ng/g. It also gave a concentration at 1 d ([3]; kidney) of 1300 ± 400 ng/g, a concentration at 3 d ([3]; kidney) of 20 ± 10 ng/g and a concentration at 0.25 d ([3]; liver) of 2440 ± 480 ng/g. It also gave a concentration at 1 d ([3]; liver) of 840 ± 110 ng/g, a concentration at 3 d ([3]; liver) of 310 ± 80 ng/g and a concentration at 0.25 d ([3]; muscle) of 160 ± 40 ng/g. For the same molecule, the concentration at 1 d ([3]; muscle) was 50 ± 10 ng/g.

For `COc1cc(Cc2cnc(N)nc2N)cc(OC)c1N(C)C` [A0, 2,4-Diamino-5-[4-(dimethylamino)-3,5-dimethoxybenzyl] pyrimidine], the “percentage of the individual metabolite” value ([1]; Broilers Extra (excreta)) was 63.2%, the “percentage of the individual metabolite” value ([1]; Broilers Plasma) was 51.6% and the “Average percentage” value [1] was 64.3%. The “percentage of the individual metabolite” value ([2]; Carp Bile) was 64.7%, the “percentage of the individual metabolite” value ([2]; Carp Extra (excreta)) was 87.5% and the “percentage of the individual metabolite” value ([2]; Carp Plasma) was 61.7%. For the same molecule, the “Average percentage” value [2] was 82.4%, the “level of intact ADP” value ([2]; carp, single oral 5 mg/kg b. w. (Table S5)) was 82.4 % of the oral dose and the half-life ([3]; swine fat, after 5 mg/kg b. w. for 7 days, read-out: t1/2 of the individual compound (converted)) was 80.9 h. It also gave a half-life [3, 4] of 80.9 h, a half-life [3, 5] of 105 h and a half-life [3, 6] of 38.9 h. The half-life [3, 7] was 38.9 to 105 h, the “share of the sample radioactivity in the detected tissues” value ([3]; swine liver, kidney, muscle, fat, over the sampling times) was “more than 42%” and the concentration at 0.25 d ([3]; fat) was 1270 ± 430 ng/g. The concentration at 1 d ([3]; fat) was 510 ± 120 ng/g, the concentration at 3 d ([3]; fat) was 330 ± 70 ng/g and the concentration at 7 d ([3]; fat) was 150 ± 30 ng/g. It also gave a concentration at 0.25 d ([3]; kidney) of 19000 ± 8810 ng/g, a concentration at 1 d ([3]; kidney) of 4160 ± 2000 ng/g and a concentration at 3 d ([3]; kidney) of 1080 ± 220 ng/g. The concentration at 7 d ([3]; kidney) was 360 ± 90 ng/g, the concentration at 14 d ([3]; kidney) was 110 ± 20 ng/g and the concentration at 0.25 d ([3]; liver) was 7600 ± 1040 ng/g. For the same molecule, the concentration at 1 d ([3]; liver) was 3010 ± 900 ng/g, the concentration at 3 d ([3]; liver) was 1320 ± 270 ng/g and the concentration at 7 d ([3]; liver) was 820 ± 140 ng/g. It also gave a concentration at 14 d ([3]; liver) of 240 ± 50 ng/g, a concentration at 0.25 d ([3]; muscle) of 1490 ± 390 ng/g and a concentration at 1 d ([3]; muscle) of 890 ± 220 ng/g. It also gave a concentration at 3 d ([3]; muscle) of 380 ± 90 ng/g and a concentration at 7 d ([3]; muscle) of 70 ± 10 ng/g.

From paper PMC4738305, “Metabolism and Disposition of Aditoprim in Swine, Broilers, Carp and Rats” (Scientific Reports, 2016)
